What follows are molecules tested on HCV 1b_Huh-Luc/Neo-ET cell line persistently expressing a bicistronic genotype 1b replicon in Huh 7 cells (assay: HCV replicon assay (luciferase readout)). Details: Hepatitis C virus, Huh-7, 72 h, read-out: Inhibition of HCV genotype 1b.
Assay type: cell-based
Description: Biological activity of the compounds of the invention was determined using an HCV replicon assay. The HCV 1b_Huh-Luc/Neo-ET cell line persistently expressing a bicistronic genotype 1b replicon in Huh 7 cells was obtained from ReBLikon GMBH. This cell line was used to test compound inhibition using luciferase enzyme activity readout as a measurement of compound inhibition of replicon levels.
On Day 1 (the day after plating), each compound is added in triplicate to the cells. Plates incubated for 72 h prior to running the luciferase assay. Enzyme activity was measured using a Bright-Glo Kit (cat. number E2620) manufactured by Promega Corporation. The following equation was used to generate a percent control value for each compound. % Control=(Average Compound Value/Average Control)*100
The EC50 value was determined using GraphPad Prism and the following equation: Y=Bottom+(Top−Bottom)/(1+10^((Log IC50−X)*HillSlope))
EC50 values of compounds are determined several times in the replicon assay.
Example compounds of the disclosed invention are illustrated in Tables 1-14 attached as appendices. The tables show inhibitory activity of many of the example compounds with respect to HCV 1b. […] The tables further provide mass spectrometry results for the synthesized example compounds.

| Compound | EC50 |
| --- | --- |
| CN1CCN(C(=O)N[C@@H](C(=O)N2CCC[C@H]2c2ncc(C#Cc3ccc(-c4cnc([C@@H]5CCCN5C(=O)[C@H](NC(=O)N5CCN(C)CC5)c5ccccc5)[nH]4)cc3)[nH]2)c2ccccc2)CC1 [Compound 118] | 10 to 999 nM |
| CC(C)(C)OC(=O)N[C@@H](C(=O)N1CCC[C@H]1C(=O)NCc1ccc(C#Cc2cnc([C@@H]3CCCN3C(=O)[C@H](NC(=O)OC(C)(C)C)c3ccccc3)[nH]2)cc1)c1ccccc1 [Compound 119] | < 1 nM |
| CC(C)[C@@H](NC(=O)OC(C)(C)C)C(=O)N1CCC[C@H]1C(=O)NCc1ccc(C#Cc2cnc([C@@H]3CCCN3C(=O)[C@H](NC(=O)OC(C)(C)C)C(C)C)[nH]2)cc1 [Compound 120] | 10 to 999 nM |
| O=C(N[C@@H](C(=O)N1CCC[C@H]1C(=O)NCc1ccc(C#Cc2cnc([C@@H]3CCCN3C(=O)[C@H](NC(=O)C3CC3)c3ccccc3)[nH]2)cc1)c1ccccc1)C1CC1 [Compound 121] | < 1 nM |
| CC(C)[C@@H](NC(=O)C1CC1)C(=O)N1CCC[C@H]1C(=O)NCc1ccc(C#Cc2cnc([C@@H]3CCCN3C(=O)[C@H](NC(=O)C3CC3)C(C)C)[nH]2)cc1 [Compound 122] | 1 to 9.9 nM |
| COC(=O)N[C@@H](C(=O)N1CCC[C@H]1c1ncc(C#Cc2ccc(-c3cnc([C@@H]4CCCN4C(=O)[C@@H](c4ccccc4)N(C)C)[nH]3)cc2)[nH]1)c1ccccc1 [Compound 123] | < 1 nM |
| CC(C)(C)OC(=O)N[C@@H](C(=O)N1CCC[C@H]1C(=O)NCCc1ccc(C#Cc2cnc([C@@H]3CCCN3C(=O)[C@H](NC(=O)OC(C)(C)C)c3ccccc3)[nH]2)cc1)c1ccccc1 [Compound 124] | < 1 nM |
| O=C(N[C@@H](C(=O)N1CCC[C@H]1C(=O)NCCc1ccc(C#Cc2cnc([C@@H]3CCCN3C(=O)[C@H](NC(=O)C3CC3)c3ccccc3)[nH]2)cc1)c1ccccc1)C1CC1 [Compound 125] | < 1 nM |
| CC(C)[C@@H](NC(=O)OC(C)(C)C)C(=O)N1CCC[C@H]1C(=O)NCCc1ccc(C#Cc2cnc([C@@H]3CCCN3C(=O)[C@H](NC(=O)OC(C)(C)C)C(C)C)[nH]2)cc1 [Compound 126] | 10 to 999 nM |
| CC(C)[C@@H](NC(=O)C1CC1)C(=O)N1CCC[C@H]1C(=O)NCCc1ccc(C#Cc2cnc([C@@H]3CCCN3C(=O)[C@H](NC(=O)C3CC3)C(C)C)[nH]2)cc1 [Compound 127] | 10 to 999 nM |
| COC(=O)N[C@@H](C(=O)N1CCC[C@H]1c1ncc(-c2ccc(C#Cc3cnc([C@@H]4CCCN4C(=O)[C@@H](c4ccccc4)N(C)C)[nH]3)cc2)[nH]1)c1ccccc1 [Compound 128] | < 1 nM |
| C[C@@H](NC(=O)[C@@H]1CCCN1C(=O)[C@H](NC(=O)OC(C)(C)C)c1ccccc1)c1ccc(C#Cc2cnc([C@@H]3CCCN3C(=O)[C@H](NC(=O)OC(C)(C)C)c3ccccc3)[nH]2)cc1 [Compound 129] | 10 to 999 nM |
| C[C@H](NC(=O)[C@@H]1CCCN1C(=O)[C@H](NC(=O)OC(C)(C)C)c1ccccc1)c1ccc(C#Cc2cnc([C@@H]3CCCN3C(=O)[C@H](NC(=O)OC(C)(C)C)c3ccccc3)[nH]2)cc1 [Compound 130] | 10 to 999 nM |
| CN(C)[C@@H](C(=O)N1CCC[C@H]1c1ncc(-c2ccc(C#Cc3cnc([C@@H]4CCCN4C(=O)[C@H](NC(=O)C4CC4)c4ccccc4)[nH]3)cc2)[nH]1)c1ccccc1 [Compound 131] | < 1 nM |
| C[C@H](NC(=O)[C@@H]1CCCN1C(=O)[C@H](NC(=O)C1CC1)c1ccccc1)c1ccc(C#Cc2cnc([C@@H]3CCCN3C(=O)[C@H](NC(=O)C3CC3)c3ccccc3)[nH]2)cc1 [Compound 132] | 10 to 999 nM |
| CN(C)[C@@H](C(=O)N1CCC[C@H]1c1ncc(C#Cc2ccc(-c3cnc([C@@H]4CCCN4C(=O)[C@H](NC(=O)C4CC4)c4ccccc4)[nH]3)cc2)[nH]1)c1ccccc1 [Compound 133] | < 1 nM |
| COC(=O)N[C@H](C(=O)N1CCC[C@H]1c1ncc(C#Cc2ccc(-c3cnc([C@@H]4CCCN4C(=O)[C@@H](NC(=O)OC)C(C)C)[nH]3)cc2)[nH]1)C(C)C [Compound 134] | < 1 nM |
| C[C@@H](NC(=O)[C@@H]1CCCN1C(=O)[C@H](NC(=O)C1CC1)c1ccccc1)c1ccc(C#Cc2cnc([C@@H]3CCCN3C(=O)[C@H](NC(=O)C3CC3)c3ccccc3)[nH]2)cc1 [Compound 135] | > 1000 nM |
| CC(C)(C)OC(=O)N[C@@H](C(=O)N1CCC[C@H]1c1ncc(-c2ccc(C#Cc3ccc(-c4cnc([C@@H]5CCCN5C(=O)[C@H](NC(=O)OC(C)(C)C)c5ccccc5)[nH]4)cc3)cc2)[nH]1)c1ccccc1 [Compound 150] | < 1 nM |
| C[C@@H](NC(=O)OC(C)(C)C)C(=O)N1CCC[C@H]1c1ncc(-c2ccc(C#Cc3ccc(-c4cnc([C@@H]5CCCN5C(=O)[C@@H](C)NC(=O)OC(C)(C)C)[nH]4)cc3)cc2)[nH]1 [Compound 151] | 10 to 999 nM |

| Compound | EC50 |
| --- | --- |
| CC(C)[C@@H](NC(=O)OC(C)(C)C)C(=O)N1CCC[C@H]1c1ncc(-c2ccc(C#Cc3ccc(-c4cnc([C@@H]5CCCN5C(=O)[C@H](NC(=O)OC(C)(C)C)C(C)C)[nH]4)cc3)cc2)[nH]1 [Compound 152] | 10 to 999 nM |
| O=C(N[C@@H](C(=O)N1CCC[C@H]1c1ncc(-c2ccc(C#Cc3ccc(-c4cnc([C@@H]5CCCN5C(=O)[C@H](NC(=O)C5CC5)c5ccccc5)[nH]4)cc3)cc2)[nH]1)c1ccccc1)C1CC1 [Compound 153] | < 1 nM |
| C[C@@H](NC(=O)C1CC1)C(=O)N1CCC[C@H]1c1ncc(-c2ccc(C#Cc3ccc(-c4cnc([C@@H]5CCCN5C(=O)[C@@H](C)NC(=O)C5CC5)[nH]4)cc3)cc2)[nH]1 [Compound 154] | 1 to 9.9 nM |
| CC(C)[C@@H](NC(=O)C1CC1)C(=O)N1CCC[C@H]1c1ncc(-c2ccc(C#Cc3ccc(-c4cnc([C@@H]5CCCN5C(=O)[C@H](NC(=O)C5CC5)C(C)C)[nH]4)cc3)cc2)[nH]1 [Compound 155] | 1 to 9.9 nM |
| COC(=O)N[C@@H](C(=O)N1CCC[C@H]1c1ncc(-c2ccc(C#Cc3ccc(-c4cnc([C@@H]5CCCN5C(=O)[C@H](NC(=O)OC)c5ccccc5)[nH]4)cc3)cc2)[nH]1)c1ccccc1 [Compound 156] | < 1 nM |
| O=C([C@H](O)c1ccccc1)N1CCC[C@H]1c1ncc(-c2ccc(C#Cc3ccc(-c4cnc([C@@H]5CCCN5C(=O)[C@H](O)c5ccccc5)[nH]4)cc3)cc2)[nH]1 [Compound 157] | < 1 nM |
| CC(=O)N[C@@H](C(=O)N1CCC[C@H]1c1ncc(-c2ccc(C#Cc3ccc(-c4cnc([C@@H]5CCCN5C(=O)[C@H](NC(C)=O)c5ccccc5)[nH]4)cc3)cc2)[nH]1)c1ccccc1 [Compound 158] | < 1 nM |
| CN1CCN(C(=O)N[C@@H](C(=O)N2CCC[C@H]2c2ncc(-c3ccc(C#Cc4ccc(-c5cnc([C@@H]6CCCN6C(=O)[C@H](NC(=O)N6CCN(C)CC6)c6ccccc6)[nH]5)cc4)cc3)[nH]2)c2ccccc2)CC1 [Compound 159] | < 1 nM |
| CN(C)[C@@H](C(=O)N1CCC[C@H]1c1ncc(-c2ccc(C#Cc3ccc(-c4cnc([C@@H]5CCCN5C(=O)[C@@H](c5ccccc5)N(C)C)[nH]4)cc3)cc2)[nH]1)c1ccccc1 [Compound 160] | < 1 nM |
| CN(C)C(=O)N[C@@H](C(=O)N1CCC[C@H]1c1ncc(-c2ccc(C#Cc3ccc(-c4cnc([C@@H]5CCCN5C(=O)[C@H](NC(=O)N(C)C)c5ccccc5)[nH]4)cc3)cc2)[nH]1)c1ccccc1 [Compound 161] | < 1 nM |
| CNC(=O)N[C@@H](C(=O)N1CCC[C@H]1c1ncc(-c2ccc(C#Cc3ccc(-c4cnc([C@@H]5CCCN5C(=O)[C@H](NC(=O)NC)c5ccccc5)[nH]4)cc3)cc2)[nH]1)c1ccccc1 [Compound 162] | < 1 nM |
| CC(C)(C)OC(=O)N[C@@H](C(=O)N1CCC[C@H]1C(=O)Nc1ccc(C#Cc2ccc(-c3cnc([C@@H]4CCCN4C(=O)[C@H](NC(=O)OC(C)(C)C)c4ccccc4)[nH]3)cc2)cc1)c1ccccc1 [Compound 163] | < 1 nM |
| CC(C)[C@H](NC(=O)OC(C)(C)C)C(=O)N1CCC[C@H]1c1ncc(-c2ccc(C#Cc3ccc(-c4cnc([C@@H]5CCCN5C(=O)[C@@H](NC(=O)OC(C)(C)C)C(C)C)[nH]4)cc3)cc2)[nH]1 [Compound 165] | 10 to 999 nM |
| O=C(N[C@@H](C(=O)N1CCC[C@H]1C(=O)Nc1ccc(C#Cc2ccc(-c3cnc([C@@H]4CCCN4C(=O)[C@H](NC(=O)C4CC4)c4ccccc4)[nH]3)cc2)cc1)c1ccccc1)C1CC1 [Compound 166] | < 1 nM |
| C[C@@H](NC(=O)[C@@H]1CCCN1C(=O)[C@H](NC(=O)OC(C)(C)C)c1ccccc1)c1ccc(C#Cc2ccc(-c3cnc([C@@H]4CCCN4C(=O)[C@H](NC(=O)OC(C)(C)C)c4ccccc4)[nH]3)cc2)cc1 [Compound 167] | 1 to 9.9 nM |
| C[C@@H](NC(=O)[C@@H]1CCCN1C(=O)[C@H](NC(=O)C1CC1)c1ccccc1)c1ccc(C#Cc2ccc(-c3cnc([C@@H]4CCCN4C(=O)[C@H](NC(=O)C4CC4)c4ccccc4)[nH]3)cc2)cc1 [Compound 168] | < 1 nM |
| C[C@H](NC(=O)[C@@H]1CCCN1C(=O)[C@H](NC(=O)OC(C)(C)C)c1ccccc1)c1ccc(C#Cc2ccc(-c3cnc([C@@H]4CCCN4C(=O)[C@H](NC(=O)OC(C)(C)C)c4ccccc4)[nH]3)cc2)cc1 [Compound 169] | 1 to 9.9 nM |
| CC(C)[C@H](NC(=O)C1CC1)C(=O)N1CCC[C@H]1c1ncc(-c2ccc(C#Cc3ccc(-c4cnc([C@@H]5CCCN5C(=O)[C@@H](NC(=O)C5CC5)C(C)C)[nH]4)cc3)cc2)[nH]1 [Compound 170] | 1 to 9.9 nM |
| COC(=O)N[C@@H](C(=O)N1CCC[C@H]1C(=O)Nc1ccc(C#Cc2ccc(-c3cnc([C@@H]4CCCN4C(=O)[C@H](NC(=O)OC)c4ccccc4)[nH]3)cc2)cc1)c1ccccc1 [Compound 171] | < 1 nM |

Reference: patent publication US8865756B2, “Inhibitors of HCV NS5A” (Presidio Pharmaceuticals, Inc., priority 2008, dated 2014)
